Data on five molecules can be found in patent EP0452680A1 (priority 1990, dated 1991).

Data set [1] is described as follows: in vitro. The note with it: bovine, mdbk cells.
The subject of the next data set is Herpesviren. Description: General statement on antiviral activity (no specific test named). The note with it: qualitative statement in the description.
The nature of data set [2]: in vitro. As to conditions: monkey, vero cells.
Data set [3] in a line: in vitro. As to conditions: monkey, vero cells. The source holds these as a separate data set.
The nature of data set [4]: in vitro. The note with it: human, hela cells.

On to `CC(C)OCC(CO)OCn1cnc2nc(N)ncc21` (centres unmarked) [Beispiel 6.10., 2-Amino-7-(1-hydroxy-3-isopropoxy-2-propoxymethyl)-purin], for which the MNTC in the data set “in vitro [1]”, in “in vitro [2]”, in “in vitro [3]” and in the data set “in vitro [4]” was greater than 400 µg/mL in each case. Moreover, the “antivirale Aktivität gegen Herpesviren” value in the data set on Herpesviren is given as “besonders hohen antiviralen Aktivität”.

In the case of `CC(C)OCC(COC(C)C)OCn1cnc2nc(N)ncc21` [Beispiel 6.7., 2-Amino-7-[1,3-bis(isopropoxy)-2-propoxymethyl]purin], the MNTC in the data set “in vitro [1]”, in “in vitro [2]”, in the data set “in vitro [3]” and in “in vitro [4]” was greater than 400 µg/mL in each case. Besides, the “antivirale Aktivität gegen Herpesviren” value in the data set on Herpesviren is on record as “besonders hohen antiviralen Aktivität”.

For the molecule `Nc1ncc2c(ncn2COC(CO)CO)n1` [Beispiel 6.12., 2-Amino-7-(1,3-dihydroxy-2-propoxymethyl)-purin], the MNTC is greater than 400 µg/mL in the data set “in vitro [1]”, 133 µg/mL in the data set “in vitro [2]”, 133 µg/mL in the data set “in vitro [3]” and 44.4 µg/mL in the data set “in vitro [4]”. Moreover, in the data set with Herpesviren, the “antivirale Aktivität gegen Herpesviren” value was “besonders hohen antiviralen Aktivität”.

As for `Nc1nc2ncn(COC(CO)CO)c2c(=O)[nH]1` [reference compound], the MNTC in the data set “in vitro [1]”, in the data set “in vitro [2]”, in the data set “in vitro [3]” and in the data set “in vitro [4]” was greater than 400 µg/mL each time.

For the molecule `Nc1nc(O)c2ncn(COC(CO)CO)c2n1` [reference compound], the MNTC in the data set “in vitro [1]” is greater than 133 µg/mL; in the data set “in vitro [2]”, greater than 400 µg/mL; in the data set “in vitro [3]”, greater than 400 µg/mL; in “in vitro [4]” it was greater than 400 µg/mL.
